Patent publication US20220380341A1, “INHIBITORS OF HIV-1 NEF FOR THE TREATMENT OF HIV DISEASE” (priority 2018, published 2022)
Read-outs that look alike come from different tables or passages of the source.

Tests used:
HIV-1NL4-3 = assay: HIV-1 infectivity assay in TZM-bl reporter cell line (LTR-luciferase, 48 h); assay type: cell-based; conditions: Human immunodeficiency virus 1, TZM-bl
Protocol: (§1) In particular, the tables show antiretroviral activity as percent inhibition of HIV-1 infectivity at 1 μM. In brief, this assay uses the TZM-bl reporter cell line, which carries a stable copy of the HIV-1 LTR coupled to luciferase. Cells are infected with HIV-1NL4-3 in the presence and absence of each compound, and luciferase activity is measured 48 h later. This assay measures early events in the HIV-1 life cycle, including viral entry, reverse transcription, nuclear entry and integration, and viral transcription. All assays include control cells infected with Nef-defective HIV-1, which replicates at 30-50% of wild-type in this system. Results are normalized to percent inhibition relative to DMSO-treated control cells infected with wild-type HIV-1 (0% inhibition) and DMSO-treated cells infected with Nef-defective HIV-1 (100% of the Nef-dependent effect)—see column 3. In addition, cell viability is measured in the TZM-bl cell line in the presence of each test compound and in the absence of HIV-1 infection, using the Cell Titer Blue cell viability assay (Promega; column 4).

TZM-bl cell line = assay type: cell-based; conditions: human, 1 μM
Protocol: as §1

HIV-1 NefNL4-3 = HIV-1 NefNL4-3 (Human immunodeficiency virus type 1 group M subtype B, UniProt P03406, A33V/T15A/T51N/V11I); assay: Surface plasmon resonance binding to recombinant full-length Nef (NL4-3); conditions: for RU30/RUNef (extent of binding): response units at 30 μM relative to Nef immobilized on the SPR chip; for Nef NL4-3 Binding, SPR 1:1 or 2-site fitting KD1: 1:1 Langmuir fit where the KD2 cell says '1 to 1 fitting', else 2-site fit
[1] = 1.0 μM, TZM-bl reporter cell line, Table 4, read-out: % Infectivity Inhibition
[2] = 48 h, Table 1, TZM-bl cells, 1 μM, 48 h, 100% = Nef-defective HIV-1, read-out: HIV-1 Infectivity % Inhibition Norm. to Δ-Nef @ 1 μM
[3] = KD, M, Table 4, SPR fit 2-step induced fit, KD = koff/kon × koff2/(koff2 + kon2)
[4] = Nef NL4-3 Binding, SPR 2-state fitting KD, Table 1, 2-step induced-fit model
[5] = Table 4, 2-step induced fit, T = 1/koff2
[6] = read-out: Nef NL4-3 Binding, SPR 1:1 or 2-site fitting KD2, Table 1, 2-site fit, second component
[7] = KD, M, Table 4, SPR fit 1:1 Langmuir, KD = koff/kon
[8] = Table 4, 1:1 Langmuir fit, T = 1/koff

SMILES | inhibition at 1 µM (HIV-1NL4-3; [1]) [%] | inhibition at 1 µM (HIV-1NL4-3; [2]) [%] | % Cell Viability (TZM-bl cell line) [%] | Percent Viability @ 1 μM (TZM-bl cells) (TZM-bl cell line) [%] | Kd (HIV-1 NefNL4-3) [nM] | Kd (HIV-1 NefNL4-3; [3]) [nM] | Kd (HIV-1 NefNL4-3; [4]) [nM] | T, minutes (residence time) (HIV-1 NefNL4-3; [5]) | Kd (HIV-1 NefNL4-3; [6]) [nM] | RU30/RUNef (extent of binding) (HIV-1 NefNL4-3) | Nef NL4-3 Binding, SPR 1:1 or 2-site fitting KD1 (HIV-1 NefNL4-3; Table 1) | Kd (HIV-1 NefNL4-3; [7]) [nM] | T, minutes (residence time) (HIV-1 NefNL4-3; [8]) | Kd (HIV-1 NefNL4-3; Nef NL4-3 Binding, SPR 1:1 or 2-site fitting KD2, Table 1, 2-site fit, second component) [nM]
Cn1ccc(-c2nn(-c3nc4ccccc4[nH]3)c(O)c2CCc2ccc(F)cc2)cc1=O [Compound I-133, 4-[1-(1H-1,3-benzodiazol-2-y1)-4-[2-(4-fluorophenyl)ethyl]-5-hydroxy-1H-pyrazol-3-yl]-1-methyl-1,2-dihydropyridin-2-one] | 16 | 16 | 100 | 102.5 | 779 | 1.51 | 1.51 | 8.59E + 03 minutes | 65300 | 2.76E- 03 |  |  |  | 
Cn1cc(-c2nn(-c3nc4ccccc4[nH]3)c(O)c2CCc2ccc(F)cc2)ccc1=O [Compound I-134, 5-[1-(1H-1,3-benzodiazol-2-y1)-4-[2-(4-fluorophenyl)ethyl]-5-hydroxy-1H-pyrazol-3-yl]-1-methyl-1,2-dihydropyridin-2-one] |  | 45.8 |  | 100.5 |  |  |  |  |  |  | No Interaction |  |  | 
Oc1c(CCc2ccc(F)cc2)c(-c2ccc(C(F)(F)F)nc2)nn1-c1nc2ccccc2[nH]1 [Compound I-135, 1-(1H-1,3-benzodiazol-2-yl)-4-[2-(4-fluorophenyl)ethyl]-3-[6-(trifluoromethyl)pyridin-3-yl]-1H-pyrazol-5-ol] | 35.7 | 35.7 | 91.9 | 91.9 | 636 | 14.7 | 14.7 | 1.47E + 03 minutes |  | 2.87E- 03 |  |  |  | 
Oc1c(CCc2ccc(F)cc2)c(C2CCCO2)nn1-c1nc2ccccc2[nH]1 (centres unmarked) [Compound I-136, 1-(1H-1,3-benzodiazol-2-yl)-4-[2-(4-fluorophenyl)ethyl]-3-(oxolan-2-yl)-1H-pyrazol-5-ol] | 26.5 | 26.5 | 99.9 | 99.9 | 160 | 2460 | 2460 | 3.32E + 00 minutes | 4770 | 5.11E- 03 |  |  |  | 
Cn1cccc(CCc2c(-c3ccc(C(F)(F)F)cc3)nn(-c3nc4ccccc4[nH]3)c2O)c1=O [Compound I-137, 3-{2-[1-(1H-1,3-benzodiazol-2-yl)-5-hydroxy-3-[4-(trifluoromethyl)phenyl]-1H-pyrazol-4-yl]ethyl}-1-methyl-1,2-dihydropyridin-2-one] | 0 | -1.4 | 99.4 | 99.4 | 243 |  |  |  |  | 1.02E- 03 |  | 243 | 5.36E + 00 minutes | 
COc1cccc(-c2nn(-c3nc4ccccc4[nH]3)c(O)c2CCc2ccc(F)cc2)n1 [Compound I-138, 1-(1H-1,3-benzodiazol-2-yl)-4-[2-(4-fluorophenyl)ethyl]-3-(6-methoxypyridin-2-yl)-1H-pyrazol-5-ol] |  | 48.2 |  | 95.8 | 3960 |  |  |  |  |  |  |  |  | 
Oc1c(CCC2CCOCC2)c(-c2ccc(C(F)(F)F)cc2)nn1-c1nc2ccccc2[nH]1 [Compound I-139, 1-(1H-1,3-benzodiazol-2-yl)-4-[2-(oxan-4-yl)ethyl]-3-[4-(trifluoromethyl)phenyl]-1H-pyrazol-5-ol] | 44.1 | 44.1 | 80.8 | 80.8 | 556 | 2070 | 2070 | 1.77E + 01 minutes |  | 3.41E- 03 |  |  |  | 
Cc1ccc(-c2nn(-c3nc4ccccc4[nH]3)c(O)c2CCc2ccc(F)cc2)cn1 [Compound I-140, 1-(1H-1,3-benzodiazol-2-yl)-4-[2-(4-fluorophenyl)ethyl]-3-(6-methylpyridin-3-yl)-1H-pyrazol-5-ol] |  | 57.3 |  | 98.3 | 915 |  |  |  |  |  |  |  |  | 
Oc1c(CCn2nccn2)c(-c2ccc(C(F)(F)F)cc2)nn1-c1nc2ccccc2[nH]1 [Compound I-141, 1-(1H-1,3-benzodiazol-2-yl)-4-[2-(2H-1,2,3-triazol-2-yl)ethyl]-3-[4-(trifluoromethyl)phenyl]-1H-pyrazol-5-ol] |  | 8.7 |  | 99.5 |  |  |  |  |  |  | No Interaction |  |  | 
Cc1nccn1CCc1c(-c2ccc(C(F)(F)F)cc2)nn(-c2nc3ccccc3[nH]2)c1O [Compound I-142, 1-(1H-1,3-benzodiazol-2-yl)-4-[2-(2-methyl-1H-imidazol-1-yl)ethyl]-3-[4-(trifluoromethyl)phenyl]-1H-pyrazol-5-ol] |  | -7.8 |  | 100.2 | 32800 |  |  |  |  |  |  |  |  | 
Oc1c(CCn2cc(Cl)cn2)c(-c2ccc(C(F)(F)F)cc2)nn1-c1nc2ccccc2[nH]1 [Compound I-143, 1-(1H-1,3-benzodiazol-2-yl)-4-[2-(4-chloro-1H-pyrazol-1-yl)ethyl]-3-[4-(trifluoromethyl)phenyl]-1H-pyrazol-5-ol] | 0 | -19.6 | 98.9 | 98.9 | 426 |  |  |  |  | 1.02E- 03 |  | 426 | 1.75E + 01 minutes | 
Oc1c(CCc2ccccn2)c(-c2ccc(C(F)(F)F)cn2)nn1-c1nc2ccccc2[nH]1 [Compound I-146, 1-(1H-1,3-benzodiazol-2-yl)-4-[2-(pyridin-2-yl)ethyl]-3-[5-(trifluoromethyl)pyridin-2-yl]-1H-pyrazol-5-ol] | 5.7 | 5.7 | 98.5 | 98.5 | 1650 |  |  |  |  | 6.42E- 04 |  | 1650 | 3.67E + 00 minutes | 
Oc1c(CCc2ccc(Br)cc2)c(-c2ccc(C(F)(F)F)cn2)nn1-c1nc2ccccc2[nH]1 [Compound I-147, 1-(1H-1,3-benzodiazol-2-yl)-4-[2-(4-bromophenyl)ethyl]-3-[5-(trifluoromethyl)pyridin-2-yl]-1H-pyrazol-5-ol] | 59.3 | 59.3 | 97.6 | 97.6 | 0.0752 |  |  |  |  | 2.11E- 03 |  | 0.0752 | 4.30E + 04 minutes | 
CS(=O)(=O)c1ccc(-c2nn(-c3nc4ccccc4[nH]3)c(O)c2CCC2CCOCC2)cc1 [Compound I-149, 1-(1H-1,3-benzodiazol-2-yl)-3-(4-methanesulfonylphenyl)-4-[2-(oxan-4-yl)ethyl]-1H-pyrazol-5-ol] |  | 54.5 |  | 98.5 | 2330 |  |  |  |  |  |  |  |  | 
Oc1c(CCC2CCOCC2)c(-c2cccc(F)c2)nn1-c1nc2ccccc2[nH]1 [Compound I-150, 1-(1H-1,3-benzodiazol-2-yl)-3-(3-fluorophenyl)-4-[2-(oxan-4-yl)ethyl]-1H-pyrazol-5-ol] | 53.9 | 53.9 | 77.7 | 77.7 |  | 1070 | 1070 | 9.69E + 00 minutes |  | 4.75E- 03 |  |  |  | 10400
OCCc1c(-c2ccc(C(F)(F)F)cc2)nn(-c2nc3ccccc3[nH]2)c1O [Compound I-153, 1-(1H-1,3-benzodiazol-2-yl)-4-(2-hydroxyethyl)-3-[4-(trifluoromethyl)phenyl]-1H-pyrazol-5-ol] | 0 | -20.1 | 99.9 | 99.9 | 68.8 |  |  |  |  | 9.06E- 04 |  | 68.8 | 9.31E + 00 minutes | 
CS(=O)(=O)c1ccc(-c2nn(-c3nc4ccccc4[nH]3)c(O)c2CCC2CCN(CC(F)(F)F)CC2)cc1 [Compound I-154, 1-(1H-1,3-benzodiazol-2-yl)-3-(4-methanesulfonylphenyl)-4-{2-[1-(2,2,2-trifluoroethyl)piperidin-4-yl]ethyl}-1H-pyrazol-5-ol] | 45.4 | 45.4 | 69.3 | 69.3 | 28800 |  |  |  |  | 4.50E- 03 |  | 28800 | 6.80E + 00 minutes | 
